Common to all, as to assay: chlorophyll a fluorescence induction (OJIP), inhibition of 1-VJ (QA to QB electron transfer) in living algal cells
Assay type in all cases: cell-based
Holding throughout (conditions): read-out: Atrazine / I50×10^-7 M / (±SE)

Assay [1] has as its target T1, photosystem II (PSII) D1 protein (Chlamydomonas reinhardtii, UniProt P07753, G207S).
T1 construct: gene psbA; full-length D1 from intronless psbA in the chloroplast, assembled in native PSII (with D2 and other subunits) in living algal cells; D1 mutants by ep-PCR of Ala153-Ala294 region and biolistic transformation of Del1
An excerpt:
(§1) chlorophyll a fluorescence induction (OJIP), inhibition of 1-VJ (QA to QB electron transfer) in living algal cells on photosystem II (PSII) D1 protein

The target of assay [2] is T2, photosystem II (PSII) D1 protein (Chlamydomonas reinhardtii, UniProt P07753, M172L).
T2 construct: gene psbA; full-length D1 from intronless psbA in the chloroplast, assembled in native PSII (with D2 and other subunits) in living algal cells; D1 mutants by ep-PCR of Ala153-Ala294 region and biolistic transformation of Del1
Text: as §1

The target in assay [3] is T3, photosystem II (PSII) D1 protein (Chlamydomonas reinhardtii, UniProt P07753, L200I).
T3 construct: gene psbA; full-length D1 from intronless psbA in the chloroplast, assembled in native PSII (with D2 and other subunits) in living algal cells; D1 mutants by ep-PCR of Ala153-Ala294 region and biolistic transformation of Del1
Text: as §1

The target in assay [4] is T4, photosystem II (PSII) D1 protein (Chlamydomonas reinhardtii, UniProt P07753).
T4 construct: gene psbA; full-length D1 from intronless psbA in the chloroplast, assembled in native PSII (with D2 and other subunits) in living algal cells; D1 mutants by ep-PCR of Ala153-Ala294 region and biolistic transformation of Del1
Text: as §1

The target in assay [5] is T5, photosystem II (PSII) D1 protein (Chlamydomonas reinhardtii, UniProt P07753, I281T).
T5 construct: gene psbA; full-length D1 from intronless psbA in the chloroplast, assembled in native PSII (with D2 and other subunits) in living algal cells; D1 mutants by ep-PCR of Ala153-Ala294 region and biolistic transformation of Del1
Text: as §1

The target in assay [6] is T6, photosystem II (PSII) D1 protein (Chlamydomonas reinhardtii, UniProt P07753, F211S/P162S).
T6 construct: gene psbA; full-length D1 from intronless psbA in the chloroplast, assembled in native PSII (with D2 and other subunits) in living algal cells; D1 mutants by ep-PCR of Ala153-Ala294 region and biolistic transformation of Del1
Text: as §1

As to `CCNc1nc(Cl)nc(NC(C)C)n1` [Atrazine, 2-chloro-4-(ethylamine)-6-(isopropylamine)-s-triazine], the IC50 in assay [1] amounted to 210 nM; in assay [2], 220 nM; in assay [3], 180 nM; in assay [4] it was 240 nM; in assay [5], 200 nM; in assay [6], 1970 nM.

The values above are taken from paper PMC3629139, “A Powerful Molecular Engineering Tool Provided Efficient Chlamydomonas Mutants as Bio-Sensing Elements for Herbicides Detection” (PLoS ONE, 2013).
